Experimental data taken from patent US20160158317A1, “Antimicrobial Peptide Variants and Polynucleotides Encoding Same” (Adenium Biotech A/S, priority 2010, published 2016).
Where a SMILES comes first, the peptide text is derived from it. Bridges are numbered along the chain shown (N, C = ends).

Assay: Determination of the protein binding (90% serum, 30 kDa filter, HPLC)
Assay type: in vitro ADME
Conditions: serum
Experimental: Protein binding assays were performed as follows. The purified peptides were mixed with 90% serum and centrifuged through a 30 kDa filter. The ultra-filtrate and the non filtrated serum samples were quantified by HPLC measurements and the protein binding was subsequently calculated.

Row | Compound | fraction unbound
1 | CC(C)[C@@H]1NC(=O)CNC(=O)[C@H](CC(N)=O)NC(=O)[C@H](CCCNC(=N)N)NC(=O)[C@H](Cc2ccc(O)cc2)NC(=O)[C@H](C(C)C)NC(=O)[C@@H]2CSSC[C@H](NC(=O)[C@H](C(C)C)NC(=O)[C@H](CCCNC(=N)N)NC1=O)C(=O)N[C@@H](Cc1ccc(O)cc1)C(=O)N[C@@H](CCCNC(=N)N)C(=O)N[C@@H](CCCNC(=N)N)C(=O)N[C@H](C(=O)N[C@@H](CC(N)=O)C(=O)O)CSSC[C@H](NC(=O)[C@H](Cc1ccccc1)NC(=O)CN)C(=O)N[C@@H](Cc1c[nH]c3ccccc13)C(=O)N[C@@H](Cc1ccc(O)cc1)C(=O)N[C@@H](Cc1c[nH]c3ccccc13)C(=O)N2 [compound 20] (H-GFCWYWCVYRNGVRVCYRRCN-OH; disulfide 3-20, 7-16 (inferred); N-terminus and C-terminus assumed) | 0.01
2 | CC(C)[C@@H]1NC(=O)[C@H](CCCCN)NC(=O)[C@H](Cc2c[nH]c3ccccc23)NC(=O)[C@@H](NC(=O)[C@H](Cc2ccccc2)NC(=O)CN)CSSC[C@@H](C(=O)N[C@@H](CC(N)=O)C(=O)O)NC(=O)[C@H](CCCNC(=N)N)NC(=O)[C@H](CCCNC(=N)N)NC(=O)[C@H](Cc2ccc(O)cc2)NC(=O)[C@@H]2CSSC[C@H](NC1=O)C(=O)N[C@@H](C)C(=O)N[C@@H](CCCNC(=N)N)C(=O)N[C@@H](CCCNC(=N)N)C(=O)N[C@@H](CC(N)=O)C(=O)NCC(=O)N[C@@H](C)C(=O)N[C@@H](CCCNC(=N)N)C(=O)N[C@@H](CO)C(=O)N2 [compound 504] (H-GFCWKVCARRNGARSCYRRCN-OH; disulfide 3-20, 7-16 (inferred); N-terminus and C-terminus assumed) | 0.05
3 | CC(C)C[C@@H]1NC(=O)CNC(=O)[C@H](CC(N)=O)NC(=O)[C@H](CCCNC(=N)N)NC(=O)[C@H](CCCCN)NC(=O)[C@H](CO)NC(=O)[C@@H]2CSSC[C@H](NC(=O)[C@H](C(C)C)NC(=O)[C@H](CCCNC(=N)N)NC1=O)C(=O)N[C@@H](Cc1ccc(O)cc1)C(=O)N[C@@H](CCCNC(=N)N)C(=O)N[C@@H](CCCNC(=N)N)C(=O)N[C@H](C(=O)N[C@@H](CC(N)=O)C(=O)O)CSSC[C@H](NC(=O)[C@H](Cc1ccccc1)NC(=O)CN)C(=O)N[C@@H](Cc1c[nH]c3ccccc13)C(=O)N[C@@H](Cc1c[nH]cn1)C(=O)N[C@@H](C(C)C)C(=O)N2 [compound 396] (H-GFCWHVCSKRNGLRVCYRRCN-OH; disulfide 3-20, 7-16 (inferred); N-terminus and C-terminus assumed) | 0.08
4 | CC(C)[C@@H]1NC(=O)CNC(=O)[C@H](CC(N)=O)NC(=O)[C@H](CCCNC(=N)N)NC(=O)[C@H](Cc2ccc(O)cc2)NC(=O)[C@H](C(C)C)NC(=O)[C@@H]2CSSC[C@H](NC(=O)[C@H](C(C)C)NC(=O)[C@H](CCCNC(=N)N)NC1=O)C(=O)N[C@@H](Cc1ccc(O)cc1)C(=O)N[C@@H](CCCNC(=N)N)C(=O)N[C@@H](CCCNC(=N)N)C(=O)N[C@H](C(=O)N[C@@H](CC(N)=O)C(=O)O)CSSC[C@H](NC(=O)[C@H](Cc1ccccc1)NC(=O)CN)C(=O)N[C@@H](Cc1c[nH]c3ccccc13)C(=O)N[C@@H](CCCNC(=N)N)C(=O)N[C@@H](C)C(=O)N2 [compound 72] (H-GFCWRACVYRNGVRVCYRRCN-OH; disulfide 3-20, 7-16 (inferred); N-terminus and C-terminus assumed) | 0.03
5 | CC(C)[C@@H]1NC(=O)CNC(=O)[C@H](CC(N)=O)NC(=O)[C@H](CCCNC(=N)N)NC(=O)[C@H](Cc2ccc(O)cc2)NC(=O)[C@H](C(C)C)NC(=O)[C@@H]2CSSC[C@H](NC(=O)[C@H]([C@@H](C)O)NC(=O)[C@H](CCCNC(=N)N)NC1=O)C(=O)N[C@@H](Cc1ccc(O)cc1)C(=O)N[C@@H](CCCNC(=N)N)C(=O)N[C@@H](CCCNC(=N)N)C(=O)N[C@H](C(=O)N[C@@H](CC(N)=O)C(=O)O)CSSC[C@H](NC(=O)[C@H](Cc1ccccc1)NC(=O)CN)C(=O)NCC(=O)N[C@@H](CCCNC(=N)N)C(=O)N[C@@H](C(C)C)C(=O)N2 [compound 171] (H-GFCGRVCVYRNGVRTCYRRCN-OH; disulfide 3-20, 7-16) | 0.16
6 | CC(C)[C@@H]1NC(=O)CNC(=O)[C@H](CC(N)=O)NC(=O)[C@H](CCCNC(=N)N)NC(=O)[C@H](Cc2ccc(O)cc2)NC(=O)[C@H](C(C)C)NC(=O)[C@@H]2CSSC[C@H](NC(=O)[C@H](C(C)C)NC(=O)[C@H](CCCNC(=N)N)NC1=O)C(=O)N[C@@H](CO)C(=O)N[C@@H](CCCNC(=N)N)C(=O)N[C@@H](CCCNC(=N)N)C(=O)N[C@H](C(=O)N[C@@H](CC(N)=O)C(=O)O)CSSC[C@H](NC(=O)[C@H](Cc1ccccc1)NC(=O)CN)C(=O)N[C@@H](Cc1c[nH]c3ccccc13)C(=O)N[C@@H](CCCCN)C(=O)N[C@@H](C(C)C)C(=O)N2 [compound 68] (H-GFCWKVCVYRNGVRVCSRRCN-OH; disulfide 3-20, 7-16 (inferred); N-terminus and C-terminus assumed) | 0.13
7 | CC(C)[C@@H]1NC(=O)CNC(=O)[C@H](Cc2c[nH]cn2)NC(=O)[C@H](CCCNC(=N)N)NC(=O)[C@H](Cc2ccc(O)cc2)NC(=O)[C@H](C(C)C)NC(=O)[C@@H]2CSSC[C@H](NC(=O)[C@H](C(C)C)NC(=O)[C@H](CCCNC(=N)N)NC1=O)C(=O)N[C@@H](Cc1c[nH]cn1)C(=O)N[C@@H](CCCNC(=N)N)C(=O)N[C@@H](CCCNC(=N)N)C(=O)N[C@H](C(=O)N[C@@H](CC(N)=O)C(=O)O)CSSC[C@H](NC(=O)[C@H](Cc1ccccc1)NC(=O)CN)C(=O)N[C@@H](Cc1c[nH]c3ccccc13)C(=O)N[C@@H](CC(N)=O)C(=O)N[C@@H](C(C)C)C(=O)N2 [compound 232] (H-GFCWNVCVYRHGVRVCHRRCN-OH; disulfide 3-20, 7-16 (inferred); N-terminus and C-terminus assumed) | 0.15
8 | CC(C)[C@@H]1NC(=O)CNC(=O)[C@H](CC(N)=O)NC(=O)[C@H](CCCNC(=N)N)NC(=O)[C@H](Cc2ccc(O)cc2)NC(=O)[C@H](C(C)C)NC(=O)[C@@H]2CSSC[C@H](NC(=O)[C@H]([C@@H](C)O)NC(=O)[C@H](CCCNC(=N)N)NC1=O)C(=O)N[C@@H](Cc1ccc(O)cc1)C(=O)N[C@@H](CCCNC(=N)N)C(=O)N[C@@H](CCCNC(=N)N)C(=O)N[C@H](C(=O)N[C@@H](CC(N)=O)C(=O)O)CSSC[C@H](NC(=O)[C@H](Cc1ccccc1)NC(=O)CN)C(=O)N[C@@H](Cc1c[nH]c3ccccc13)C(=O)N[C@@H](Cc1ccc(O)cc1)C(=O)N[C@@H](C(C)C)C(=O)N2 [compound 45] (H-GFCWYVCVYRNGVRTCYRRCN-OH; disulfide 3-20, 7-16) | 0.02
9 | CC(C)[C@@H]1NC(=O)CNC(=O)[C@H](CC(N)=O)NC(=O)[C@H](CCCNC(=N)N)NC(=O)[C@H](CCCCN)NC(=O)[C@H](C(C)C)NC(=O)[C@@H]2CSSC[C@H](NC(=O)[C@H](CO)NC(=O)[C@H](CCCNC(=N)N)NC1=O)C(=O)N[C@@H](Cc1ccc(O)cc1)C(=O)N[C@@H](CCCNC(=N)N)C(=O)N[C@@H](CCCNC(=N)N)C(=O)N[C@H](C(=O)N[C@@H](CC(N)=O)C(=O)O)CSSC[C@H](NC(=O)[C@H](Cc1ccccc1)NC(=O)CN)C(=O)N[C@@H](Cc1c[nH]c3ccccc13)C(=O)N[C@@H](Cc1ccc(O)cc1)C(=O)N[C@@H](C(C)C)C(=O)N2 [compound 87] (H-GFCWYVCVKRNGVRSCYRRCN-OH; disulfide 3-20, 7-16 (inferred); N-terminus and C-terminus assumed) | 0.07
10 | CC(C)[C@@H]1NC(=O)[C@H](CCCNC(=N)N)NC(=O)[C@H](CCCCN)NC(=O)CNC(=O)[C@H](CC(N)=O)NC(=O)[C@H](CCCNC(=N)N)NC(=O)[C@H](Cc2ccc(O)cc2)NC(=O)[C@H](C)NC(=O)[C@@H]2CSSC[C@H](NC1=O)C(=O)N[C@@H](Cc1ccc(O)cc1)C(=O)N[C@@H](CCCNC(=N)N)C(=O)N[C@@H](CCCNC(=N)N)C(=O)N[C@H](C(=O)N[C@@H](CC(N)=O)C(=O)O)CSSC[C@H](NC(=O)[C@H](Cc1ccccc1)NC(=O)CN)C(=O)N[C@@H](Cc1c[nH]c3ccccc13)C(=O)N[C@@H](CCCNC(=N)N)C(=O)N[C@@H](C)C(=O)N2 [compound 417] (H-GFCWRACAYRNGKRVCYRRCN-OH; disulfide 3-20, 7-16 (inferred); N-terminus and C-terminus assumed) | 0.05
11 | CC(C)[C@@H]1NC(=O)[C@H](CCCNC(=N)N)NC(=O)[C@H](Cc2c[nH]c3ccccc23)NC(=O)[C@@H](NC(=O)[C@H](Cc2ccccc2)NC(=O)CN)CSSC[C@@H](C(=O)N[C@@H](CC(N)=O)C(=O)O)NC(=O)[C@H](CCCNC(=N)N)NC(=O)[C@H](CCCNC(=N)N)NC(=O)[C@H](Cc2ccc(O)cc2)NC(=O)[C@@H]2CSSC[C@H](NC1=O)C(=O)N[C@@H](Cc1c[nH]cn1)C(=O)N[C@@H](Cc1ccc(O)cc1)C(=O)N[C@@H](CCCNC(=N)N)C(=O)N[C@@H](CC(N)=O)C(=O)N[C@@H](CO)C(=O)N[C@@H](C(C)C)C(=O)N[C@@H](CCCNC(=N)N)C(=O)N[C@@H](C(C)C)C(=O)N2 [compound 327] (H-GFCWRVCHYRNSVRVCYRRCN-OH; disulfide 3-20, 7-16 (inferred); N-terminus and C-terminus assumed) | 0.02
12 | CC(C)[C@@H]1NC(=O)[C@H](CCCNC(=N)N)NC(=O)[C@H](Cc2ccc(O)cc2)NC(=O)CNC(=O)[C@H](CC(N)=O)NC(=O)[C@H](CCCNC(=N)N)NC(=O)[C@H](Cc2ccc(O)cc2)NC(=O)[C@H](C(C)C)NC(=O)[C@@H]2CSSC[C@H](NC1=O)C(=O)N[C@@H](Cc1c[nH]cn1)C(=O)N[C@@H](CCCNC(=N)N)C(=O)N[C@@H](CCCNC(=N)N)C(=O)N[C@H](C(=O)N[C@@H](CC(N)=O)C(=O)O)CSSC[C@H](NC(=O)[C@H](Cc1ccccc1)NC(=O)CN)C(=O)N[C@@H](Cc1c[nH]c3ccccc13)C(=O)N[C@@H](CC(N)=O)C(=O)N[C@@H](C(C)C)C(=O)N2 [compound 242] (H-GFCWNVCVYRNGYRVCHRRCN-OH; disulfide 3-20, 7-16 (inferred); N-terminus and C-terminus assumed) | 0.17
